In series [1] the target is Casein kinase I isoform epsilon (Homo sapiens, UniProt P49674). Put plainly: Inhibition of human recombinant CK1epsilon by FRET assay.
For series [2], the target named is Cyclin-dependent kinase 5 (Homo sapiens, UniProt Q00535). Kind of series: Inhibition of human recombinant Cdk5/p35 by FRET assay.
In series [3] the target is Glycogen synthase kinase-3 alpha (Homo sapiens, UniProt P49840). Kind of series: Inhibition of human recombinant GSK3alpha by FRET assay.
Series [4] deals with Protein kinase C alpha type (Homo sapiens, UniProt P17252). Kind of series: Inhibition of human recombinant PKCalpha by FRET assay.
In the next series the target is T1, Aurora kinase A (Homo sapiens, UniProt O14965).
T1 sequence (O14965 whole entry): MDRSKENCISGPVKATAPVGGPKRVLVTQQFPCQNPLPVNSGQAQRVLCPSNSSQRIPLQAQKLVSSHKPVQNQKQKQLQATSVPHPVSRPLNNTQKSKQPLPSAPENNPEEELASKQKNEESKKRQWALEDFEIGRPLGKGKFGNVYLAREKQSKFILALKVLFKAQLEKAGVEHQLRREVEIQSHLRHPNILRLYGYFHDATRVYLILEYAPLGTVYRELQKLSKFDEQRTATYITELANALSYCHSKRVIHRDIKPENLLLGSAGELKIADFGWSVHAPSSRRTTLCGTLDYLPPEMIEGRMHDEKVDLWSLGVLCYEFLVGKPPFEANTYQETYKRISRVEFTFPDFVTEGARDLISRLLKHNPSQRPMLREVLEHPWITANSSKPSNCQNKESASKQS
Kind of series: Inhibition of human recombinant AURKA by FRET assay.

For series [5], the target named is Glycogen synthase kinase-3 beta (Homo sapiens, UniProt P49841). Kind of series: Inhibition of human recombinant GSK3beta by FRET assay.
For a further series, the species on record is Danio rerio. Put plainly: Toxicity in wild type zebra fish embryo up to 30 uM. It counts as organism-based. As to conditions: zebrafish, in vivo.

Glycogen synthase kinase-3 beta, sequence (P49841 whole entry): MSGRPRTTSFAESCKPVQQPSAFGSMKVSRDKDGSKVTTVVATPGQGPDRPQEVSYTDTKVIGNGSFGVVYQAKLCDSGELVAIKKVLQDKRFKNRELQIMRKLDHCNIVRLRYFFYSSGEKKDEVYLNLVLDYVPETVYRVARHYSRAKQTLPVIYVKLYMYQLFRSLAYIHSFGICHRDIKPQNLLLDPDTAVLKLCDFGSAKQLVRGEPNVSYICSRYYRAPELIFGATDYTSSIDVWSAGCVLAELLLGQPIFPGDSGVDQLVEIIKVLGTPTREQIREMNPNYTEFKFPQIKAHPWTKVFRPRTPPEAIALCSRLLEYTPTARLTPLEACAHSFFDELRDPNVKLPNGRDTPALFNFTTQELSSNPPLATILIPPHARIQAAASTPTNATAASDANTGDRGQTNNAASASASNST
Casein kinase I isoform epsilon, sequence (P49674 whole entry, canonical isoform): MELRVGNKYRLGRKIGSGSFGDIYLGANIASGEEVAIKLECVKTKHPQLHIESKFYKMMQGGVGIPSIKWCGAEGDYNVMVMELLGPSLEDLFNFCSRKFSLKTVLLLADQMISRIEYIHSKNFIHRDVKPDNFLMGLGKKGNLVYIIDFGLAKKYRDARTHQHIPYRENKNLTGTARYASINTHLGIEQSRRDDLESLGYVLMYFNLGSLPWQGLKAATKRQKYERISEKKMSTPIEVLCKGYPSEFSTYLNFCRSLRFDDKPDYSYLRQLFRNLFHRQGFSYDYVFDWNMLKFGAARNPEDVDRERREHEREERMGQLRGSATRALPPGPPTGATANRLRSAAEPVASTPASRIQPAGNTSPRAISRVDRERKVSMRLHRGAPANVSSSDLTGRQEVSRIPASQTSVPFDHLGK
Glycogen synthase kinase-3 alpha, sequence (P49840 whole entry): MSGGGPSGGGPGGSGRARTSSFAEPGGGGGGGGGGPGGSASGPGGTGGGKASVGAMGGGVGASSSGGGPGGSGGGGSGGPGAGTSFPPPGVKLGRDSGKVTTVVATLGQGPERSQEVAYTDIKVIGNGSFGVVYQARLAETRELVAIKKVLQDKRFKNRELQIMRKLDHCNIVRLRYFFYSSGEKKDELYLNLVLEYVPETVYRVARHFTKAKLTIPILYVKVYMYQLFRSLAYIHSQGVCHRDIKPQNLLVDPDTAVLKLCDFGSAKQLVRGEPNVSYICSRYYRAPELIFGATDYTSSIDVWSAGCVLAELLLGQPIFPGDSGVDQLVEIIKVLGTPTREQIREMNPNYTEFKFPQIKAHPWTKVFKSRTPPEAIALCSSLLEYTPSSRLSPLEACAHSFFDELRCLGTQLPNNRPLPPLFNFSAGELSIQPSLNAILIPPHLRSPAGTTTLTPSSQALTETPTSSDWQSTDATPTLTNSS
Cyclin-dependent kinase 5, sequence (Q00535 whole entry): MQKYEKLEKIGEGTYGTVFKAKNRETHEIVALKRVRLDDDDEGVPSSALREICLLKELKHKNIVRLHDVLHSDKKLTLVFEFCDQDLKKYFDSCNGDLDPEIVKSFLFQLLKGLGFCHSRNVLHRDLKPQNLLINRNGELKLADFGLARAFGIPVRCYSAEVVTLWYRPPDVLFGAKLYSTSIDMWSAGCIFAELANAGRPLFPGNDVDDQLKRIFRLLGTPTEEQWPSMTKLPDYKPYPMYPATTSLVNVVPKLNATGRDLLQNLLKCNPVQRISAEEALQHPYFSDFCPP

In general, IC50 refers to the concentration needed to halve the response being measured. `N#Cc1ccc(-c2ccc(CSc3nnc(-c4ccncc4)o3)cc2)cc1`: the half-maximal inhibitory concentration (IC50) in series [1] is over 100 µM; in series [2], over 100 µM; in series [3] it was 77 nM; in series [4], over 100 µM; on Aurora kinase A it was over 100 µM; in series [5], 153 nM.

For the compound `N#Cc1cc(F)ccc1-c1ccc(CSc2nnc(-c3ccncc3)o2)cc1`, the IC50 in series [1] is over 100 µM; in series [2], over 100 µM; in series [3] it was 324 nM; in series [4], over 100 µM; at Aurora kinase A, over 100 µM; in series [5], 56 nM.

With `c1ccc(-c2ccc(CSc3nnc(-c4ccncc4)o3)cc2)cc1`, the IC50 in series [1] was over 100 µM; in series [2] it was over 100 µM; in series [3], 52 nM; in series [4], over 100 µM; at Aurora kinase A it was over 100 µM; in series [5], 83 nM.

`CC(=O)Nc1cc(-c2nnc(SCc3ccccc3)o2)ccn1`: the IC50 is over 100 µM in series [1]; over 100 µM in series [2]; 20 nM in series [3]; over 100 µM in series [4]; 60 µM at Aurora kinase A; 35 nM in series [5].

As to `CC(=O)Nc1cc(-c2nnc(SCc3cccc(C#N)c3)o2)ccn1`, the IC50 was over 100 µM in series [1]; over 100 µM in series [2]; 17 nM in series [3]; over 100 µM in series [4]; over 100 µM at Aurora kinase A; 19 nM in series [5].

Regarding `CC(=O)Nc1cc(-c2nnc(SCc3ccc(-c4ccccc4C#N)cc3)o2)ccn1`, the IC50 in series [1] is over 100 µM; in series [2], over 100 µM; in series [3], 2 nM; in series [4], over 100 µM; at Aurora kinase A it was over 100 µM; in series [5] it was 17 nM. Further, the Activity entry in the series filed under Danio rerio was “Non-toxic”.

As for `Fc1cc(F)cc(-c2ccc(CSc3nnc(-c4ccc5c(c4)OCO5)o3)cc2)c1`, the IC50 in series [1] is 80 µM; in series [2] it was over 100 µM; in series [3], 51 nM; in series [4], over 100 µM; at Aurora kinase A, over 100 µM; in series [5], 195 nM.

Turning to `COc1ccc(-c2ccc(CSc3nnc(-c4ccc5c(c4)OCO5)o3)cc2)c(C#N)c1`, the IC50 in series [1] is 50 µM; in series [2] it was over 100 µM; in series [3] it was 5 nM; in series [4], over 100 µM; at Aurora kinase A, 45 µM; in series [5], 14 nM. For the same compound, the Activity result in the series listed under Danio rerio is “Non-toxic”.

Take `COc1ccc(-c2ccc(CSc3nnc(-c4ccc5c(c4)OCO5)o3)cc2)cc1`: the IC50 in series [1] was 20 µM; in series [2] it was over 100 µM; in series [3], 7 nM; in series [4], over 100 µM; at Aurora kinase A, 40 µM; in series [5], 75 nM.

As for `O=[N+]([O-])c1cccc(-c2ccc(CSc3nnc(-c4ccc5c(c4)OCO5)o3)cc2)c1`, the IC50 in series [1] is over 100 µM; in series [2], over 100 µM; in series [3] it was 15 nM; in series [4], over 100 µM; on Aurora kinase A, over 100 µM; in series [5], 86 nM.

As to `N#Cc1cccc(-c2ccc(CSc3nnc(-c4ccc5c(c4)OCO5)o3)cc2)c1`, the IC50 in series [1] was over 100 µM; in series [2] it was over 100 µM; in series [3], 4 nM; in series [4], over 100 µM; at Aurora kinase A, over 100 µM; in series [5], 29 nM.

Regarding `O=[N+]([O-])c1ccccc1-c1ccc(CSc2nnc(-c3ccc4c(c3)OCO4)o2)cc1`, the IC50 in series [1] is over 100 µM; in series [2] it was over 100 µM; in series [3], 3 nM; in series [4] it was over 100 µM; on Aurora kinase A, over 100 µM; in series [5] it was 27 nM.

As for `c1ccc(-c2ccc(CSc3nnc(-c4ccc5c(c4)OCCO5)o3)cc2)cc1`, the IC50 was over 100 µM in series [1]; over 100 µM in series [2]; 51 nM in series [3]; over 100 µM in series [4]; over 100 µM on Aurora kinase A; 234 nM in series [5].

In the case of `Fc1cc(F)cc(-c2ccc(CSc3nnc(-c4ccc5c(c4)OCCO5)o3)cc2)c1`, the IC50 was over 100 µM in series [1]; over 100 µM in series [2]; 35 nM in series [3]; over 100 µM in series [4]; over 100 µM on Aurora kinase A; 966 nM in series [5].

On to `COc1ccc(-c2ccc(CSc3nnc(-c4ccc5c(c4)OCCO5)o3)cc2)c(C#N)c1`, for which the IC50 in series [1] is over 100 µM; in series [2] it was over 100 µM; in series [3] it was 5 nM; in series [4], over 100 µM; on Aurora kinase A, over 100 µM; in series [5], 32 nM.

In the case of `COc1ccc(-c2ccc(CSc3nnc(-c4ccc5c(c4)OCCO5)o3)cc2)cc1`, the IC50 is over 100 µM in series [1]; over 100 µM in series [2]; 19 nM in series [3]; over 100 µM in series [4]; over 100 µM at Aurora kinase A; 127 nM in series [5].

For the compound `N#Cc1ccc(-c2ccc(CSc3nnc(-c4ccc5c(c4)OCCO5)o3)cc2)cc1`, the IC50 was over 100 µM in series [1]; over 100 µM in series [2]; 195 nM in series [3]; over 100 µM in series [4]; 50 µM at Aurora kinase A; 2000 nM in series [5].

For the compound `O=[N+]([O-])c1cccc(-c2ccc(CSc3nnc(-c4ccc5c(c4)OCCO5)o3)cc2)c1`, the IC50 in series [1] was over 100 µM; in series [2] it was over 100 µM; in series [3] it was 15 nM; in series [4], over 100 µM; at Aurora kinase A, over 100 µM; in series [5], 164 nM.

Take `O=[N+]([O-])c1ccccc1-c1ccc(CSc2nnc(-c3ccc4c(c3)OCCO4)o2)cc1`: the IC50 was over 100 µM in series [1]; over 100 µM in series [2]; 4 nM in series [3]; over 100 µM in series [4]; over 100 µM on Aurora kinase A; 90 nM in series [5].

Regarding `N#Cc1cccc(-c2ccc(CSc3nnc(-c4ccc5c(c4)OCCO5)o3)cc2)c1`, the IC50 in series [1] was over 100 µM; in series [2] it was over 100 µM; in series [3] it was 9 nM; in series [4], over 100 µM; on Aurora kinase A, over 100 µM; in series [5] it was 225 nM.

As for `COc1ccc(-c2ccc(CSc3nnc(-c4ccncc4)o3)cc2)cc1`, the IC50 was over 100 µM in series [1]; over 100 µM in series [2]; 240 nM in series [3]; over 100 µM in series [4]; over 100 µM on Aurora kinase A; 176 nM in series [5].

With `N#Cc1cccc(-c2ccc(CSc3nnc(-c4ccncc4)o3)cc2)c1`, the 50% inhibitory concentration (IC50) is over 100 µM in series [1]; over 100 µM in series [2]; 46 nM in series [3]; over 100 µM in series [4]; 60 µM on Aurora kinase A; 84 nM in series [5].

Turning to `O=[N+]([O-])c1ccccc1-c1ccc(CSc2nnc(-c3ccncc3)o2)cc1`, the IC50 in series [1] is over 100 µM; in series [2], over 100 µM; in series [3], 27 nM; in series [4], over 100 µM; on Aurora kinase A, 5 µM; in series [5], 164 nM.

The values are drawn from ChEMBL document CHEMBL2390816, “Structure-based optimization of oxadiazole-based GSK-3 inhibitors” (Eur J Med Chem, 2013).
